We go through 4 molecules from patent US7465817B2, “Inositolized phospholipids” (Charite-Universitats Medizin Berlin, priority 2002, dated 2008).

Data set [1] deals with HaCaT cells. Kind of data set: cell proliferation ELISA, based on the incorporation of BrdU (Roche). To be noted: Homo sapiens, Fischer et al. unpublished data, read-out: antiproliferative effect IC50.
The test system of data set [2] is HaCaT cells. Briefly: cell matrix adhesion to ECM proteins (collagen IV, fibronectin, laminin), crystal violet. It counts as cell-based, human. To be noted: for cell matrix adhesion after incubation (summary of advantages): HePC with delayed onset of action; for cell adhesion to extracellular matrix components fibronectin, laminin and collagen IV: treatment for 2 h. As to the method: In order to study the effect of Glc-PAF, Ino-PAF and Glc-PC (as specified in Example 2) on cell matrix adhesion HaCaT cells were rested 15 min at 4° C. and allowed to adhere to different ECM proteins (collagen IV, fibronectin and laminin) for 90 min at 37° C. The proteins of the extracellular matrix (ECM) were loaded onto the plastic surface by overnight treatment at 4° C. After fixing and staining in crystal violet, coloring was measured at 570 nm. Per test were used 50,000 cells, and quadruple testing was performed.

For the next data set, the system named is β1-Integrin. Kind of data set: β1 integrin surface expression and clustering, immunofluorescence. Type of data set: cell-based, human. As to conditions: HaCaT cells. The procedure:
HaCaT cells were treated with Ino-PAF (obtained as described in Example 1) for 48 h. For the immunofluorescence measurement, cells were treated with 5 μM Ino-PAF. The antibody utilized for detection was directed against the β1-Integrin, which is a surface receptor conferring cell-matrix-adhesion. Immunofluorescence analysis was performed on a collagen IV matrix. 5×10^4 cells/well were left to adhere for 90 min and stained with K20-FITC (anti-β1) or Phalloidin-TRITC respectively.

Data set [3] concerns HaCaT cells. Briefly: cell proliferation ELISA, based on the incorporation of BrdU (Roche). On the set-up: species or system human. To be noted: for IC50: serum-free, text says μmolar range; for antiproliferative effect (in words): non cytotoxic concentrations. The procedure: (§1) The impact of glycosidation in the glycosidated phospholipid analogs was determined in serum-free cell cultures of human keratinocytes (HaCaT cells) and a squamous carcinoma cell line (SCC-25).
Ino-PAF as obtained in Example 1, Glc-PC and Glc-PAF (synthesis according to Mickeleit, M. et al., Angew. Chem. Int. Ed. Engl. 34:2667-2669 (1995) and 37:351-353 (1998)), and HePC (Hexadecylphosphocholine; commercially available as Miltefosin) were tested in the cell proliferation ELISA, BrdU (col.), Roche in an amount of from 0.6 to 5 μM. Prior to the assay the cells were kept for 2 h in serum-free keratinocyte medium. Assays were performed using 10.000 cells per test, at least quadruple testing.

Data set [4] relates to HaCaT cells. Briefly: Viability determined by the LDH assay. Type of data set: cell-based. As to conditions: human.
In data set [5] the test system is HaCaT cells. To be noted: literature, Schoen et al. 1996; cited from earlier work.
The next data set has as its system protein kinase C (PKC). As to conditions: cited from earlier work.
For data set [6] the following is noted: cited from earlier work.
A further data set deals with SCC-25 cells. Kind of data set: antiproliferative effect in squamous carcinoma cell line. It counts as cell-based. To be noted: SCC-25 tumor cells. The procedure: as §1
In SCC-25 cells the antiproliferative effects of the glycosidated phospholipid analogs is much stronger.

For data set [7] the following is noted: low but antiproliferative concentrations; cited from earlier work.

Entries after “also recorded” stand apart in the source; their conditions may differ. Read-outs that look alike come from different tables or passages of the source.

For `CCCCCCCCCCCCCCCCCCOC[C@H](COP(=O)([O-])OCC[N+](C)(C)C)OCCO[C@@H]1[C@@H](O)[C@H](O)[C@@H](O)[C@H](O)[C@@H]1O` [Ino-PAF, inositol-C2-PAF], the IC50 in the data set on HaCaT cells [1] was determined as 1.7 µM. Also, in the data set on HaCaT cells [2], the “cell matrix adhesion after incubation (summary of advantages)” value is “increased”; the “cell adhesion to extracellular matrix components fibronectin, laminin and collagen IV” value is given as “concentration-dependent increase; also recorded: increases cell adhesion”. The “surface expression of integrins” value in the data set on β1-Integrin is “not affected”. In addition, in the data set on β1-Integrin (5 μM, 48 h), the integrin clustering entry is given as “induces integrin clustering”. The molecule also had an IC50 with HaCaT cells [3] (Homo sapiens) of 1.8 µM. Further, the “antiproliferative effect (in words)” value in the data set on HaCaT cells [3] was “strong antiproliferative effects; also recorded: stronger antiproliferative effects than the therapeutically used HePC”. Also, in the data set on HaCaT cells [4], the “Viability (LD50)” value was found to be 15 and the “toxic effect LD50” value is greater than 10 µM.

As to `CCCCCCCCCCCCCCCCOP(=O)([O-])OCC[N+](C)(C)C` [HePC, hexadecyl-phosphocholine], in the data set on HaCaT cells [2], the “cell matrix adhesion after incubation (summary of advantages)” value is reported as “increased”. For the same molecule, in the data set on HaCaT cells [3], the IC50 was found to be 4.5 µM. In addition, the cell matrix adhesion result in the data set with HaCaT cells [5] is reported as “reduce cell matrix adhesion”.

Regarding glyceroglucophosphocholine [Glc-PC], in the data set with HaCaT cells [3], the “antiproliferative effect (in words)” value was “strong antiproliferative effects; also recorded: inhibited cell proliferation” and the IC50 was determined as 9 µM. Moreover, the “increase of PKC activity” value with protein kinase C (PKC) (HaCaT cells, non-toxic concentrations) is reported as “up to 70%”. Further, the “inhibition of PKC activity in vitro” value in the data set with protein kinase C (PKC) (high, toxic concentrations) was “do not inhibit PKC activity”. In data set [6], the water solubility result is given as “water-soluble”. In the data set on HaCaT cells [4], the “Viability (LD50)” value came to 50.

With `CCCCCCCCCCCCCCCCCCOC[C@H](COP(=O)([O-])OCC[N+](C)(C)C)O[C@H]1O[C@H](CO)[C@@H](O)[C@H](O)[C@H]1O` [Glc-PAF, 1-O-octadecyl-2-O-α-D-gluco-pyranosyl-sn-glycero-3-phosphocholine], the antiproliferative effect entry with SCC-25 cells is given as “sub-μmolar range”. Also, the “cell adhesion to extracellular matrix components fibronectin, laminin and collagen IV” value in the data set on HaCaT cells [2] was “increases cell adhesion”. In the data set with HaCaT cells [3] (Homo sapiens), this molecule returned an IC50 of 5 µM. In addition, the “antiproliferative effect (in words)” value in the data set with HaCaT cells [3] was “inhibited cell proliferation”. The water solubility entry in data set [6] is on record as “water-soluble”. Besides, the apoptosis entry in data set [7] was “cause apoptosis”. Besides, the “Viability (LD50)” value in the data set with HaCaT cells [4] came to 9.
